Active and inactive are the calls of the source. The calls are words filed in the database; no cut-off is given here.
Tests used:
[1] = tested on: HEK293; experiment: Fold induction of cAMP accumulation in HEK 293 cells at 75u M.; assay type: functional, Homo sapiens
[2] = tested on: HEK293; experiment: In vitro cAMP accumulation in HEK 293 cells.; assay type: functional, cell-based; conditions: Homo sapiens
[3] = tested on: HEK293; experiment: Fold increase expressed as pmol of cAMP accumulation by the compound/basal level of cAMP produced by GLP1-7HEK cells at 25 uM; No activity; assay type: functional, cell-based; conditions: Homo sapiens
[4] = tested on: HEK293; experiment: Fold increase expressed as pmol of cAMP accumulation by the compound/basal level of cAMP produced by CTR-2HEK cells at 25 uM; assay type: functional, Homo sapiens
[5] = tested on: HEK293; experiment: Fold increase expressed as pmol of cAMP accumulation by the compound/basal level of cAMP produced by GLU-1HEK cells at 25 uM; No activity; assay type: functional, cell-based; conditions: Homo sapiens
[6] = tested on: HEK293; experiment: Fold increase expressed as pmol of cAMP accumulation by the compound/basal level of cAMP produced by GIP-1HEK cells at 25 uM; No activity; assay type: functional, cell-based; conditions: Homo sapiens
[7] = tested on: HEK293; experiment: Fold increase expressed as pmol of cAMP accumulation by the compound/basal level of cAMP produced at 25 uM in multiplex cell based assay; 4.5/5.7; assay type: functional, Homo sapiens
[8] = tested on: HEK293; experiment: Fold increase expressed as pmol of cAMP accumulation by the compound/basal level of cAMP produced by CGRP1-7HEK cells at 25 uM; No activity; assay type: functional, cell-based; conditions: Homo sapiens
[9] = tested on: HEK293; experiment: Fold increase expressed as pmol of cAMP accumulation by the compound/basal level of cAMP produced by EPTH1-1HEK cells at 25 uM; No activity; assay type: functional, cell-based; conditions: Homo sapiens
[10] = tested on: HEK293; experiment: Fold increase expressed as pmol of cAMP accumulation by the compound/basal level of cAMP produced at 25 uM in multiplex cell based assay; 4.7/3.2; assay type: functional, Homo sapiens
[11] = tested on: HEK293; experiment: Fold increase expressed as pmol of cAMP accumulation by the compound/basal level of cAMP produced at 25 uM in multiplex cell based assay; 5.1/4.4; assay type: functional, Homo sapiens
[12] = tested on: monkey; experiment: Bioavailability in monkey after peroral administration at 10 mpk; conditions: in vivo, po, 10 mg/kg, read-out: Bioavailabiility
[13] = Bioavailability in rat after peroral administration at 30 mpk; assay type: ADME, organism-based; conditions: in vivo, po, 30 mg/kg, read-out: Bioavailabiility
[14] = tested on: monkey; experiment: Bioavailability in monkey after intravenous administration at 1 mpk; conditions: in vivo, read-out: Bioavailabiility
[15] = Bioavailability in rat after intravenous administration at 1 mpk; assay type: ADME, organism-based; conditions: in vivo, read-out: Bioavailabiility
[16] = Bioavailability in rat after intravenous administration at 2 mpk; assay type: ADME, organism-based; conditions: in vivo, read-out: Bioavailabiility
[17] = tested on: Rattus norvegicus; experiment: Bioavailability in rat after peroral administration at 100 mpk; assay type: functional, organism-based
[18] = tested on: HEK293; experiment: Fold increase expressed as pmol of cAMP accumulation by the compound/basal level of cAMP produced at 25 uM in multiplex cell based assay; 4.7/4.0; assay type: functional, Homo sapiens

| SMILES | Fold-induction [1] | EC50 [2] [µM] | other results |
| --- | --- | --- | --- |
| CCCC1=C(C(=O)OCc2ccc(C(=O)NCCN3CCOCC3)cc2)C(c2cccc(C)c2)NC(=O)N1 (centres undefined) | 50 | 4.3 |  |
| CCCC1=C(C(=O)OCc2ccc(C(=O)OC)cc2)C(c2cccc(C)c2)NC(=O)N1 (centres undefined) | 42 | 1 |  |
| CCCCCC1=C(C(=O)OCC)C(c2cccc(C)c2)NC(=O)N1 (centres undefined) | 31 |  |  |
| CCCC1=C(C(=O)OCc2ccc(C(=O)NCCCN3CCCCC3)cc2)C(c2cccc(C)c2)NC(=O)N1 (centres undefined) | 52 | 1.9 |  |
| CCCC1=C(C(=O)OCC)C(c2cc(C)cc(C)c2)NC(=O)N1 (centres undefined) | 34 | 9.5 |  |
| CC1=C(C(=O)OCc2ccccc2)C(c2ccccc2)NC(=O)N1 (centres undefined) | 17 | > 20 |  |
| CC1=C(C(=O)OC2CCCC2C)C(c2ccccc2)NC(=O)N1 (centres undefined) |  |  | Fold-induction [3]: inactive; Fold-induction [4]: 8; Fold-induction [5]: inactive; Fold-induction [6]: inactive; Fold-induction [7]: 4.5; Fold-induction [8]: inactive; Fold-induction [9]: inactive |
| CC1=C(C(=O)OCc2ccccc2)C(c2cccc(C)c2)NC(=O)N1 (centres undefined) | 23 | 15 |  |
| CCCC1=C(C(=O)OCc2ccc(C(=O)N(C)CCN3CCCCC3)cc2)C(c2cccc(C)c2)NC(=O)N1 (centres undefined) | 55 | 4.4 |  |
| CCCC1=C(C(=O)OCC)C(c2cccc(Cl)c2)NC(=O)N1 (centres undefined) | 21 | 6.8 |  |
| CCCC1=C(C(=O)OCc2ccc(C(=O)NCCCN3CCN(C)CC3)cc2)C(c2cccc(C)c2)NC(=O)N1 (centres undefined) | 55 | 4.3 |  |
| C=CCOC(=O)C1=C(C)NC(=O)NC1c1ccc2c(c1)OCO2 (centres undefined) |  |  | Fold-induction [10]: 4.7; Fold-induction [3]: inactive; Fold-induction [4]: 8; Fold-induction [5]: inactive; Fold-induction [6]: inactive; Fold-induction [8]: inactive; Fold-induction [9]: inactive |
| CCCC1=C(C(=O)OCc2ccc(C(=O)NCCCN(C)C)cc2)C(c2cccc(C)c2)NC(=O)N1 (centres undefined) | 55 | 1.4 |  |
| CC1=C(C(=O)OCC(F)(F)C(F)(F)F)C(c2ccccc2)NC(=O)N1 (centres undefined) |  |  | Fold-induction [3]: inactive; Fold-induction [4]: 9; Fold-induction [5]: inactive; Fold-induction [11]: 5.1; Fold-induction [6]: inactive; Fold-induction [8]: inactive; Fold-induction [9]: inactive |
| CCCC1=C(C(=O)OCc2ccc(C(=O)NCCN3CCCCC3)cc2)C(c2cccc(C)c2)NC(=O)N1 (centres undefined) | 51 | 1.3 | bioavailability [12]: 13%; bioavailability [13]: 65%; bioavailability [14]: 13%; bioavailability [15]: 65% |
| CCCC1=C(C(=O)OCc2ccccc2)C(c2cccc(C)c2)NC(=O)N1 (centres undefined) | 36 | 5.2 |  |
| CCCC1=C(C(=O)OCC)C(c2cccc(C)c2)NC(=O)N1 (centres undefined) | 35 | 7.5 | bioavailability [16]: 2%; bioavailability [17]: 2% |
| CC(C)C[C@H](NC(=O)[C@H](CCCCN)NC(=O)CNC(=O)[C@H](CC(C)C)NC(=O)[C@@H](NC(=O)[C@@H]1CSSC[C@H](N)C(=O)N[C@@H](CO)C(=O)N[C@@H](CC(N)=O)C(=O)N[C@@H](CC(C)C)C(=O)N[C@@H](CO)C(=O)N[C@@H]([C@@H](C)O)C(=O)N1)C(C)C)C(=O)N[C@@H](CO)C(=O)N[C@@H](CCC(N)=O)C(=O)N[C@@H](CCC(=O)O)C(=O)N[C@@H](CC(C)C)C(=O)N[C@@H](Cc1c[nH]cn1)C(=O)N[C@@H](CCCCN)C(=O)N[C@@H](CC(C)C)C(=O)N[C@@H](CCC(N)=O)C(=O)N[C@H](C(=O)N[C@@H](Cc1ccc(O)cc1)C(=O)N1CCC[C@H]1C(=O)N[C@@H](CCCNC(=N)N)C(=O)N[C@H](C(=O)N[C@@H](CC(N)=O)C(=O)N[C@H](C(=O)NCC(=O)N[C@@H](CO)C(=O)NCC(=O)N[C@H](C(=O)N1CCC[C@H]1C(N)=O)[C@@H](C)O)[C@@H](C)O)[C@@H](C)O)[C@@H](C)O [CALCITONIN SALMON] | 40 | 0.003 |  |
| COc1ccc(COC(=O)C2=C(C(C)C)NC(=O)NC2c2cccc(C)c2)cc1 (centres undefined) | 33 | 5.8 |  |
| CCCC1=C(C(=O)OCc2ccc(C(=O)O)cc2)C(c2cccc(C)c2)NC(=O)N1 (centres undefined) | 61 | 3.4 |  |
| CCC1=C([N+](=O)[O-])C(c2ccc3c(c2)OCO3)NC(=O)N1 (centres undefined) |  |  | Fold-induction [3]: inactive; Fold-induction [4]: 12; Fold-induction [5]: inactive; Fold-induction [6]: inactive; Fold-induction [8]: inactive; Fold-induction [18]: 4.7; Fold-induction [9]: inactive |
| CCCC1=C(C(=O)OCc2ccc(C(=O)N(C)C)cc2)C(c2cccc(C)c2)NC(=O)N1 (centres undefined) | 40 | 3.4 |  |

Source: ChEMBL document CHEMBL1147586, “Discovery of a dihydropyrimidine series of molecules that selectively mimic the biological actions of calcitonin” (Bioorg Med Chem Lett, 2004)
